Laboratory results reported in US9562003B2, “Methods of using substituted tetracycline compounds to modulate RNA” (Paratek Pharmaceuticals, Inc., priority 2002, dated 2017).

Key:
[1] = test system: mRNAs in J774.2 and RAW264.7 cells; experiment: Affymetrix microarray: mRNAs up- or down-regulated by minocycline in murine macrophage cell lines; format: cell-based; conditions: 24 hours
Procedure: (§1) Two murine macrophage cell lines were used: J774.2 (gift from Peter Lambert, Aston University, UK), and RAW 264.7 (ATCC item number TIB-71). Cells were harvested from nearly confluent culture flasks and seeded into 6 well plates at a density of 5×10^6 cells well^−1 in a volume of 3 ml Dulbecco's modified essential medium supplemented with 10% fetal calf serum. After 2 hours, cells were exposed to the following conditions:
1) control (J774 cells on two separate occasions, and RAW 264.7 cells)
2) 50 μg/ml minocycline (J774 cells on two separate occasions, and RAW 264.7 cells)
3) 100 ng/ml LPS (J774 cells on two separate occasions, and RAW 264.7 cells)
4) 50 μg/ml minocycline+100 ng/ml LPS (J774 cells on two separate occasions, and RAW 264.7 cells)
(§2) The tetracycline compounds were added 1.5 hours post seeding, thirty minutes before the addition of LPS. The plates were incubated at 37° C. at 5% CO2 in a humidified incubator.
24 hours after incubation under experimental conditions, media was removed from the wells, and total RNA was purified from each sample using QIAGEN RNeasy® Mini columns. The manipulations which were then performed on the total RNA samples were as outlined in The Affymetrix® GeneChip® Expression Analysis technical manual, sections 2, chapter 1, entitled Eukaryotic Target Preparation. Briefly, RNA was reverse transcribed into double stranded cDNA with an oligo dT primer containing a T7 promoter. The product was then purified by phenol:chloroform:isoamyl extraction and ethanol precipitation, and then used in an […] to synthesize biotin-labelled antisense cRNA (Affymetrix controls of B. subtilis genes excised from pBluescript plasmid with Xho I digestion were added at this stage to control for correct translation and biotin incorporation). The cRNA was then cleaned using QIAGEN RNeasy® Mini columns, and the resulting cRNA solution fragmented using metal-induced hydrolysis. […]
For both J774.2 and RAW264.7 cells, two lists were generated, one of mRNAs which were increased at lease 2-fold by minocycline, and one of mRNAs which were decreased at least 2-fold by minocycline. In the case of mRNAs which were increased, the mRNAs had to be statistically ‘Present’ in the samples which contained minocycline (‘Present’ as determined by the Affymetrix microarray suite software). […]
(§3) For both J774.2 and RAW264.7 cells stimulated by LPS, two lists were generated, one of mRNAs which were increased at lease 2-fold by minocycline, and one of mRNAs which were decreased at least 2-fold by minocycline. In the case of mRNAs which were increased, the mRNAs had to be statistically ‘Present’ in the samples which contained minocycline (‘Present’ as determined by the Affymetrix microarray suite software).

in vitro = format: cell-based; conditions: African green monkey (COS-1) and Chinese hamster (CHO-K1)
Procedure: COS-1 and CHO-K1 cell suspensions were prepared, seeded into 96-well tissue culture treated black-walled microtiter plates (density determined by cell line), and incubated overnight at 37° C., in 5% CO2 and approximately 95% humidity. The following day, serial dilutions of drug were prepared under sterile conditions and transferred to cell plates. Cell/Drug plates were incubated under the above conditions for 24 hours. Following the incubation period, media/drug was aspirated and 50 μl of Resazurin (0.042 mg/ml in PBS w/Ca and Mg) was added. The plates were then incubated under the above conditions for 2 hours and then in the dark at room temperature for an additional 30 minutes. Fluorescence measurements were taken (excitation 535 nm, emission 590 nm). The IC50 (concentration of drug causing 50% growth inhibition) was then calculated.

mRNAs in J774.2 cells = experiment: Affymetrix microarray: mRNAs up- or down-regulated by Compounds A and B in LPS-stimulated macrophages; format: cell-based, murine; conditions: 50 μg/ml compound + 100 ng/ml LPS, 24 hours, J774.2 only; for Numbers of mRNAs with levels significantly altered by both Compounds A and B, in the presence of LPS: Decreased: decreased at least 2-fold by both compounds; for Numbers of mRNAs with levels significantly altered by both Compounds A and B, in the presence of LPS: Increased: increased at least 2-fold by both compounds
Procedure: as §1
5) 50 μg/ml Compound A+100 ng/ml LPS (J774 cells only)
6) 50 μg/ml Compound B+100 ng/ml LPS (J774 cells only)
as §2
24 hours after incubation under experimental conditions, media was removed from the wells, and total RNA was purified from each sample using QIAGEN RNeasy® Mini columns. The manipulations which were then performed on the total RNA samples were as outlined in The Affymetrix® GeneChip® Expression Analysis technical manual, sections 2, chapter 1, entitled Eukaryotic Target Preparation. Briefly, RNA was reverse transcribed into double stranded cDNA with an oligo dT primer containing a T7 promoter. The product was then purified by phenol:chloroform:isoamyl extraction and ethanol precipitation, and then used in an […] to synthesize biotin-labelled antisense cRNA (Affymetrix controls of B. subtilis genes excised from pBluescript plasmid with Xho I digestion were added at this stage to control for correct translation and biotin incorporation). The cRNA was then cleaned using QIAGEN RNeasy® Mini columns, and the resulting cRNA solution fragmented using metal-induced hydrolysis.
Samples were prepared for hybridization with the Affymetrix murine genome chips U74AV2 according to the directions in the Affymetrix® GeneChip® Expression Analysis technical manual, sections 2, chapters 3 and 4, entitled Eukaryotic Target Hybridization and Eukaryotic Arrays: Washing Staining and Scanning. Briefly, 15 ug Fragmented cRNA was mixed with Affymetrix hybridization controls, herring sperm DNA, BSA, and concentrated hybridization buffer, boiled for 5 minutes, centrifuged at 14000×g for 5 minutes to obtain a precipitated-free solution, and hybridized with the array for 16 hours. […]
as §3, with “For” for “For both”, “J774.2” for “J774.2 and RAW264.7”, “Compounds A and/or B,” for “minocycline,”, “Compounds A and/or B.” for “minocycline.”, “Compounds A and/or B” for “minocycline”

IC50 at 24 h (in vitro) | Structure (SMILES) | Numbers of mRNAs with levels significantly altered by minocycline, in the presence of LPS: Decreased ([1]; 50 μg/ml minocycline + 100 ng/ml LPS, decreased at least 2-fold, common to all three lists (J774.2 twice, RAW264.7)) | Numbers of mRNAs with levels significantly altered by minocycline, in the presence of LPS: Increased ([1]; 50 μg/ml minocycline + 100 ng/ml LPS, increased at least 2-fold, common to all three lists (J774.2 twice, RAW264.7)) | Numbers of mRNAs with levels significantly altered by minocycline: Decreased ([1]; 50 μg/ml minocycline, no LPS, decreased at least 2-fold, mRNAs common to all three lists (J774.2 twice, RAW264.7)) | Numbers of mRNAs with levels significantly altered by minocycline: Increased ([1]; 50 μg/ml minocycline, no LPS, increased at least 2-fold, mRNAs common to all three lists (J774.2 twice, RAW264.7)) | Numbers of mRNAs with levels significantly altered by both Compounds A and B, in the presence of LPS: Decreased (mRNAs in J774.2 cells) | Numbers of mRNAs with levels significantly altered by both Compounds A and B, in the presence of LPS: Increased (mRNAs in J774.2 cells)
> 25 µg/mL | CN(C)c1ccc(O)c2c1C[C@H]1C[C@H]3[C@H](N(C)C)C(O)=C(C(N)=O)C(=O)[C@@]3(O)C(O)=C1C2=O [minocycline] | 9 | 28 | 4 | 21 | – | –
– | CN(C)C1C(O)=C(C(N)=O)C(=O)[C@@]2(O)C(O)=C3C(=O)c4c(O)ccc(CNCC(C)(C)C)c4C[C@H]3C[C@@H]12 (stereo partly shown) [Compound A] | – | – | – | – | 108 | 133
> 25 µg/mL | C[C@H]1c2cccc(O)c2C(=O)C2=C(O)[C@]3(O)C(=O)C(C(N)=O)=C(O)[C@@H](N(C)C)[C@@H]3[C@@H](O)[C@@H]21 [doxycycline] | – | – | – | – | – | –
– | C[C@H]1c2ccc(N3CCCCC3)c(O)c2C(=O)C2=C(O)[C@]3(O)C(=O)C(C(N)=O)=C(O)C(N(C)C)[C@@H]3[C@@H](O)[C@@H]21 (stereo partly shown) [Compound B] | – | – | – | – | 108 | 133
